Data: US10160747B2, “Compounds and methods for kinase modulation, and indications therefor” (Plexxikon Inc., priority 2016, dated 2018)

Each compound was assayed against T1, BA/F3-FLT3-ITD + D835Y (Homo sapiens, UniProt P36888, D835Y, cells depend on it, form not given) (assay: Engineered BA/F3 cell growth assay, FLT3 ITD/D835Y). Settings: 3 d growth.
T1 sequence (P36888 with tags, fused parts or gaps INS600HVDFREYEYD/D835Y): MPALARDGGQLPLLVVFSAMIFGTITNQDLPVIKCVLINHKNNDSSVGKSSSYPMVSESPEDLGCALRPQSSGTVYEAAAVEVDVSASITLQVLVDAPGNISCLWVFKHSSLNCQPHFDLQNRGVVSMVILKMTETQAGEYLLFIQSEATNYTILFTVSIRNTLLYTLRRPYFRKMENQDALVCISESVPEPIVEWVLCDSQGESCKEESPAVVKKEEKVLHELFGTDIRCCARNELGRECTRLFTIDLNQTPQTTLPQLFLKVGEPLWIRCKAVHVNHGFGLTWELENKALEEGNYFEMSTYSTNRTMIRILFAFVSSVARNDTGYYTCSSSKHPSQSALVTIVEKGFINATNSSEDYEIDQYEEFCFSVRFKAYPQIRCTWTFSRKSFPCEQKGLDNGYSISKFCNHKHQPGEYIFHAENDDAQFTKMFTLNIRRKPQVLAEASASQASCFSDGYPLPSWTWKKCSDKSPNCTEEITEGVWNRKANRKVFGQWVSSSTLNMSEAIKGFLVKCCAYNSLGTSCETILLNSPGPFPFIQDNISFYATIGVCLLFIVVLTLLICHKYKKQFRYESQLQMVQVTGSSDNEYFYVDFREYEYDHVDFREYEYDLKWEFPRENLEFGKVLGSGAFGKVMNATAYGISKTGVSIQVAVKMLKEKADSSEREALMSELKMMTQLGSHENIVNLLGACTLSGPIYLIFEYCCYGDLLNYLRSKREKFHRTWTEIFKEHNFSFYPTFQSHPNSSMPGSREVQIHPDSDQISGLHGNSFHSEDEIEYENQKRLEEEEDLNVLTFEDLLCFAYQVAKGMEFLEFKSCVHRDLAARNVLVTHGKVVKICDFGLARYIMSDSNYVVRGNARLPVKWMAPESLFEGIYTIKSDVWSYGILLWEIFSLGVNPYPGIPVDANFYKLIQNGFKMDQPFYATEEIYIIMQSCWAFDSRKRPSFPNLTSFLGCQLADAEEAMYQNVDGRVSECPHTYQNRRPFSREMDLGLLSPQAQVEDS
Assay type: cell-based, murine
Method in brief: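 Murine Ba/F3 cells transfected with full-length FLT3 ITD/D835Y, grown without IL-3 so growth depends on FLT3. Seeded at 1×10^4 cells/well, 8-point 1:3 series to 1 μM top (0.2% DMSO), 3 days at 37 °C. CellTiter-Glo luminescence (ATP) versus concentration gave IC50.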

GI50, 0.0001 to 10 µM:
COc1ncc(NC(=O)Cc2ccc(-c3cnc4[nH]nc(NC(=O)C(F)(F)F)c4c3)cc2)cc1C(F)(F)F [Compound P-0215, 2,2,2-trifluoro-N-[5-[4-[2-[[6-methoxy-5-(trifluoromethyl)-3-pyridyl]amino]-2-oxo-ethyl]phenyl]-1H-pyrazolo[3,4-b]pyridin-3-yl]acetamide]
CCn1cc(Nc2ncc(-c3ccc(CC(=O)Nc4cc(C(F)(F)F)ccn4)c(F)c3)cn2)cn1 [Compound P-0255, 2-[4-[2-[(1-ethylpyrazol-4-yl)amino]pyrimidin-5-yl]-2-fluoro-phenyl]-N-[4-(trifluoromethyl)-2-pyridyl]acetamide]
COCCn1cc(Nc2ncc(-c3ccc(CC(=O)Nc4cc(C(F)(F)F)ccn4)c(F)c3)cn2)cn1 [Compound P-0270, 2-[2-fluoro-4-[2-[[1-(2-methoxyethyl)pyrazol-4-yl]amino]pyrimidin-5-yl]phenyl]-N-[4-(trifluoromethyl)-2-pyridyl]acetamide]
CCOc1n[nH]c2ncc(-c3ccc(CC(=O)Nc4cnc(OC)c(C(F)(F)F)c4)cc3)cc12 [Compound P-0213, 2-(4-(3-ethoxy-1H-pyrazolo[3,4-b]pyridin-5-yl)phenyl)-N-(6-methoxy-5-(trifluoromethyl)pyridin-3-yl)acetamide]
COCCn1cc(Nc2ncc(-c3ccc(CC(=O)Nc4ccc(C(F)(F)F)nc4)c(F)c3)cn2)cn1 [Compound P-0268, 2-[2-fluoro-4-[2-[[1-(2-methoxyethyl)pyrazol-4-yl]amino]pyrimidin-5-yl]phenyl]-N-[6-(trifluoromethyl)-3-pyridyl]acetamide]
Cn1cc(Nc2ncc(-c3cc(F)c(CC(=O)Nc4cncc(C(F)(F)F)c4)cc3F)cn2)cn1 [Compound P-0207, 2-[2,5-difluoro-4-[2-[(1-methylpyrazol-4-yl)amino]pyrimidin-5-yl]phenyl]-N-[5-(trifluoromethyl)-3-pyridyl]acetamide]
COCCn1cc(Nc2ncc(-c3ccc(CC(=O)Nc4cnc(OC)c(C(F)(F)F)c4)c(F)c3)cn2)cn1 [Compound P-0265, 2-[2-fluoro-4-[2-[[1-(2-methoxyethyl)pyrazol-4-yl]amino]pyrimidin-5-yl]phenyl]-N-[6-methoxy-5-(trifluoromethyl)-3-pyridyl]acetamide]
Cc1nn(C)cc1Nc1ncc(-c2ccc(CC(=O)Nc3cnc(C)c(C(F)(F)F)c3)cc2)cn1 [Compound P-0228, 2-[4-[2-[(1,3-dimethylpyrazol-4-yl)amino]pyrimidin-5-yl]phenyl]-N-[6-methyl-5-(trifluoromethyl)-3-pyridyl]acetamide]
COc1ncc(NC(=O)Cc2ccc(-c3cnc(Nc4cnn(C5CC5)c4)nc3)cc2)cc1C(F)(F)F [Compound P-0234, 2-[4-[2-[(1-cyclopropylpyrazol-4-yl)amino]pyrimidin-5-yl]phenyl]-N-[6-methoxy-5-(trifluoromethyl)-3-pyridyl]acetamide]
COc1ncc(NC(=O)Cc2ccc(-c3cnc4[nH]c(-c5ccc(C#N)nc5)cc4c3)c(F)c2)cc1C(F)(F)F [Compound P-0014, 2-[4-[2-(6-cyano-3-pyridyl)-1H-pyrrolo[2,3-b]pyridin-5-yl]-3-fluoro-phenyl]-N-[6-methoxy-5-(trifluoromethyl)-3-pyridyl]acetamide]
CCn1cc(Nc2ncc(-c3ccc(CC(=O)Nc4cnc(C)c(C(F)(F)F)c4)cc3)cn2)cn1 [Compound P-0254, 2-[4-[2-[(1-ethylpyrazol-4-yl)amino]pyrimidin-5-yl]phenyl]-N-[6-methyl-5-(trifluoromethyl)-3-pyridyl]acetamide]
O=C(Cc1ccc(-c2cnc(Nc3cnn(C4CC4)c3)nc2)cc1)Nc1cnc(Cl)c(C(F)(F)F)c1 [Compound P-0233, N-[6-chloro-5-(trifluoromethyl)-3-pyridyl]-2-[4-[2-[(1-cyclopropylpyrazol-4-yl)amino]pyrimidin-5-yl]phenyl]acetamide]
CCn1cc(Nc2ncc(-c3ccc(CC(=O)Nc4cc(C(F)(F)F)ccn4)cc3)cn2)cn1 [Compound P-0250, 2-[4-[2-[(1-ethylpyrazol-4-yl)amino]pyrimidin-5-yl]phenyl]-N-[4-(trifluoromethyl)-2-pyridyl]acetamide]
O=C(Cc1ccc(-c2cnc(Nc3cnn(C4CC4)c3)nc2)cc1F)Nc1ccc(C(F)(F)F)nc1 [Compound P-0242, 2-[4-[2-[(1-cyclopropylpyrazol-4-yl)amino]pyrimidin-5-yl]-2-fluoro-phenyl]-N-[6-(trifluoromethyl)-3-pyridyl]acetamide]
COc1ncc(NC(=O)Cc2ccc(-c3cnc4[nH]c(-c5ccc(C#N)nc5)cc4c3)cc2F)cc1C(F)(F)F [Compound P-0011, 2-[4-[2-(6-cyano-3-pyridyl)-1H-pyrrolo[2,3-b]pyridin-5-yl]-2-fluoro-phenyl]-N-[6-methoxy-5-(trifluoromethyl)-3-pyridyl]acetamide]
O=C(Cc1cc(F)c(-c2cnc(Nc3cnn(C(F)F)c3)nc2)cc1F)Nc1cc(C(F)(F)F)ccn1 [Compound P-0021, 2-[4-[2-[[1-(difluoromethyl)pyrazol-4-yl]amino]pyrimidin-5-yl]-2,5-difluoro-phenyl]-N-[4-(trifluoromethyl)-2-pyridyl]acetamide]
CCn1cc(Nc2ncc(-c3ccc(CC(=O)Nc4cnc(C)c(C(F)(F)F)c4)c(F)c3)cn2)cn1 [Compound P-0261, 2-[4-[2-[(1-ethylpyrazol-4-yl)amino]pyrimidin-5-yl]-2-fluoro-phenyl]-N-[6-methyl-5-(trifluoromethyl)-3-pyridyl]acetamide]
O=C(Cc1ccc(-c2cnc(Nc3cnn(C(F)F)c3)nc2)cc1)Nc1cncc(C(F)(F)F)c1 [Compound P-0209, 2-[4-[2-[[1-(difluoromethyl)pyrazol-4-yl]amino]pyrimidin-5-yl]phenyl]-N-[5-(trifluoromethyl)-3-pyridyl]acetamide]
Cn1cc(Nc2ncc(-c3cc(F)c(CC(=O)Nc4cc(C(F)(F)F)ccn4)cc3F)cn2)cn1 [Compound P-0019, 2-[2,5-difluoro-4-[2-[(1-methylpyrazol-4-yl)amino]pyrimidin-5-yl]phenyl]-N-[4-(trifluoromethyl)-2-pyridyl]acetamide]
Cc1ncc(NC(=O)Cc2ccc(-c3cnc4[nH]c(C#CC(C)(C)O)cc4c3)cc2)cc1C(F)(F)F [Compound P-0220, 2-[4-[2-(3-hydroxy-3-methyl-but-1-ynyl)-1H-pyrrolo[2,3-b]pyridin-5-yl]phenyl]-N-[6-methyl-5-(trifluoromethyl)-3-pyridyl]acetamide]
COc1ncc(NC(=O)Cc2ccc(-c3cnc4[nH]nc(N)c4c3)cc2)cc1C(F)(F)F [Compound P-0216, 2-(4-(3-amino-1H-pyrazolo[3,4-b]pyridin-5-yl)phenyl)-N-(6-methoxy-5-(trifluoromethyl)pyridin-3-yl)acetamide]
O=C(Cc1ccc(-c2cnc(Nc3cnn(C4CC4)c3)nc2)cc1)Nc1cc(C(F)(F)F)ccn1 [Compound P-0237, 2-[4-[2-[(1-cyclopropylpyrazol-4-yl)amino]pyrimidin-5-yl]phenyl]-N-[4-(trifluoromethyl)-2-pyridyl]acetamide]
